From patent US12648932B2, “Ergothioneine, S-methyl-ergothioneine, and uses thereof” (FUNDACIÓ INSTITUT D'INVESTIGACIÓ BIOMÈDICA DE BELLVITGE …, priority 2019, dated 2026)
Each block holds one compound with its values, some of them ahead of it.

Experiments:
[1] = equivalent of 5 mg/kg·day; cited from earlier work
[2] = test system: cystinuric mice (cystine stone formation); assay: 6-month (chronic) L-Erg treatment of cystinuric mice since weaning, cystine stone onset by X-ray imaging; assay type: in vivo, mouse; settings: for stone growth (rate) in the L-Erg treated group: preventive treatment
Experimental: For the chronic exposure (6-month treatment), 4-6 mice per cage were treated since weaning for 6 months. To control L-Erg dose, water intake and mice weight were monitored and L-Erg concentration in drinking water was adjusted to get 16 mg/kg·day dose every 3 days for the first month and weekly afterwards. All mice were caged in metabolic cages individually the last week of the treatment to collect urine where water intake and mice weight were monitored daily.
(§1) Isoflurane anesthetized mice were subjected to X-ray imaging for lithiasis detection and follow-up with an IVIS Lumina XR Series III (Caliper Lifescience-Vertex Techniques) following manufacturer's imaging parameters at the age indicated in the corresponding figure legends with a calibration curve of cystine stone of known weights. Stone quantification was done using Living Image Software, provided with the instrument, by manually delimiting stone area and the estimated weight was interpolated from the calibration curve.
(§2) For the growth rate analysis, a linear regression model was used when more than 2 data points where available. The slope of the regression line in the model was used as the growth rate.
(§3) During the last week of any treatment period, mice were individually housed in metabolic cages for 4 days with the first day as an adaptation period. Mice weight, water and food intake, and excreted urine were monitored daily. 24 h urine samples were collected and kept at −80° C. until further analysis with 50 μL thymol 10% in isopropanol as preservative. pH was determined with a pHmeter (cat. no. 5209, Crison), and the redox potential with an ORP electrode (cat.no. 5265, Crison) at room temperature on a micropH 2000 (Crison).
On the last day, mice were anesthetized with isfluorane and blood removed through intracardiac puncture and kidneys were harvested, weighted and stored at −80° C. until further use. Cystine stones, if present, were removed, dried, weighted and stored at RT.

[3] = L-Erg-Cys in vitro binding assay; settings: pH=7.2 and pH=11, RT, 17 h, LC/MS-MS
Experimental: The reactivity of L-Erg with itself and with Cys was assayed in vitro at two conditions pH=7.2 in 0.2M Na2HPO4 and pH=11 in boric acid buffer (ref. 33650-1L, Fluka) at RT for 17 h. The presence of L-Erg-L-Erg and L-Erg-Cys dimers, and cystine was determined by LC/MS-MS.

cystinuria mouse model = assay: 1-month L-Erg treatment in the drinking water (dose finding): water intake, urine pH, ORP, urine L-Erg and S-Met-L-Erg; assay type: in vivo; settings: for increase of L-Erg concentration in urine: after vs before treatment
Experimental: Three different treatments were applied to mice: 1-month, 3-month to lithiasic mice (subchronic) and 6-month (chronic exposure). In all cases L-Erg was administered in the drinking water.
For the 1-month treatment, L-Erg was provided to eight 3-month old male and female mice at 15 or 60 mg/L for 4 weeks in standard cages with free access to water and food to 8 mice (4 males and 4 females).
as §3
(§4) L-Erg and S-Met-L-Erg analysis in urine were determined as in Example 1. For the determination of transulfuration pathway metabolites concentration, frozen kidneys were grinded using a pre-cooled mortar and pestle on dry ice. Then, 100 mg of powdered kidney were homogenized in 400 μL PBS supplemented with 10 mM NEM. To induce protein precipitation, PCA at 4% was added and samples were centrifuged at 4° C. for 15 min at 10,000 rpm in a microfuge. Supernatants were transferred to a new tube and stored at −80° C. until further analysis. Intracellular content of transulfuration pathway metabolites was determined by U PLC-MS/MS (Escobar J, et al. Development of a reliable method based on ultra-performance liquid chromatography coupled to tandem mass spectrometry to measure thiol-associated oxidative stress in whole blood samples. J. Pharm. Biomed. Anal. 2016; 123: 104-112). Protein pellets were resuspended in 400 μL 1M NaOH and the supernatant used to determine total protein concentration by BCA Protein Assay Kit (ThermoScientific).
First, there were determined the best working dose for treating the mice by investigating the effects of 1-month L-Erg treatment at two different concentrations in the drinking water, 15 and 60 mg/L, on water intake, and urine pH and ORP and L-Erg concentration.

[4] = test system: lithiasic mice (cystine stone growth); assay: 3-month L-Erg treatment of lithiasic mice, cystine stone growth by X-ray imaging; assay type: in vivo, mouse; settings: 3 months
Experimental: For the evaluation of L-Erg effect on lithiasic mice, 15 mice (8 males and 7 females) were treated with 60 mg/L L-Erg on the drinking water and 13 mice (4 male and 9 females were left untreated as control. Mice were 10.9-26-9 weeks-old at the beginning of the treatment period with a mean age of 15.3±1.4 and 16.9±1.01 weeks of age for control and L-Erg treated, respectively. During the 3-month treatment water intake and mice weight was monitored weekly.
as §1, §2, §3

[5] = test system: transulfuration pathway metabolites in kidney; assay: Intracellular content of transulfuration pathway metabolites in kidneys of chronically treated mice (UPLC-MS/MS); assay type: in vivo, mouse; settings: chronically L-Erg treated vs untreated mice
Experimental: as §4, with “For the chronic exposure (6-month treatment), 4-6 mice per cage were treated since weaning for 6 months. To control L-Erg dose, water intake and mice weight were monitored and L-Erg concentration in drinking water was adjusted to get 16 mg/kg·day dose every 3 days for the first month and weekly afterwards. All mice were caged in metabolic cages individually the last week of the treatment to collect urine where water intake and mice weight were monitored daily. On the last day, mice were anesthetized with isfluorane and blood removed through intracardiac puncture and kidneys were harvested, weighted and stored at −80° C. until further use. Cystine stones, if present, were removed, dried, weighted and stored at RT. L-Erg and” for “L-Erg and”

[6] = test system: lithiasic phenotype in cystinuric mice; assay: ROC curve of urine S-Met-L-Erg concentration to differentiate the lithiasic phenotype; set-up: species or system mouse; settings: stone former vs non-stone former Slc7a9-/- mice
Experimental: Mice from each genotype were individually housed in metabolic cages for 4 days with the first day as an adaptation period. Mice weight, water and food intake, and feces and urine excreted were monitored daily. 24 h urine samples were collected and kept at −80° C. until further analysis with 50 μL thymol 10% in isopropanol as preservative. Blood was obtained by intracardiac puncture with EDTA coated syringes and transferred into Microvette EDTA-tubes (Sarstedt) and centrifuged at 3000 rpm for 10 min and 4° C. in a minifuge after a 10 min incubation at room temperature. Plasma was then separated into a new tube and kept on ice. Plasma absorbance at 414 nm was then determined to quantify hemolysis with a NanoDrop spectrophotometer and only those with OD<0.2 were considered for the further analysis. Plasma samples were stored at −80° C. and centrifuged erythrocytes (RBCs) were also collected and stored at −80° C.
For L-Erg and S-met-L-Erg analysis in urine, thawed urine samples where centrifuged at 1000×g 5 min and 4° C. to remove any debris. […] The samples where then filtered through eXtremeFV PVDF 0.2 μm filter vials (Thomson Instrument Company), and L-Erg and S-met quantified by UPLC-MS/MS. […]
Mass spectrometry was carried out under positive ion, electrospray ionization mode, using multiple reaction monitoring (MRM) for quantification of specific target ions. […]

[7] = end of 6-month treatment, treated vs non-treated
[8] = 60 mg/L L-Erg in drinking water
[9] = 60 mg/L, before vs after treatment

lithiasis onset ([2]; 16 mg/kg·day, 6 months, independently of sex): delayed lithiasis onset | stone growth (rate) in the L-Erg treated group ([2]; 16 mg/kg·day, 6 months, vs untreated, listed as ergothioneine): lower | effect on mouse weight ([2]; 6-month chronic treatment): no effects | effect on water intake ([2]; 6-month chronic treatment): no effects | effect on urine pH [2, 7]: no differences | reduction in the number of lithiasic (stone-forming) mice ([2]; target dose 16 mg/kg·day in drinking water since weaning, 6 months, vs untreated): 50% | delay of stone formation in relation to non-treated mice ([2]; treated mice that still formed stones): 1 month | increase of L-Erg concentration in urine (cystinuria mouse model; 15 mg/L L-Erg in drinking water): 3.4±0.4 fold | urine pH change (cystinuria mouse model; 15 mg/L L-Erg in drinking water, p=0.052): statistically non-significant increase | water intake normalized by surface, change at the end of the treatment (cystinuria mouse model; 15 mg/L L-Erg in drinking water, p=0.11): statistically non-significant increase | urine pH change (cystinuria mouse model; [8]): statistically significant increase | increase of L-Erg concentration in urine (cystinuria mouse model; [8]): 174.6±38.4 fold | water intake normalized by surface, change at the end of the treatment (cystinuria mouse model; 60 mg/L L-Erg in drinking water, p=0.08): statistically non-significant increase | urine redox status or potential (ORP) change (cystinuria mouse model; 15 and 60 mg/L L-Erg in drinking water): statistically non-significant decrease | effect on cystine stone growth ([4]; 60 mg/L in drinking water, lithiasic mice, treated vs untreated, p=0.61): No effect | effect on growth of multiple stones ([4]; 60 mg/L in drinking water, p=0.41): No statistically significant effect | effect on growth of single stones ([4]; 60 mg/L in drinking water, p=0.78): No statistically significant effect | effect on surface corrected water intake [4, 9]: no differences | effect on urine pH [4, 9]: no differences | effect on urine redox status [4, 9]: no differences
Compound: C[N+](C)(C)[C@@H](Cc1c[nH]c(=S)[nH]1)C(=O)[O-] (stereo in doubt) [L-Erg, [1-carboxy-2-(2-sulfanylidene-1,3-dihydroimidazol-4-yl)ethyl]-trimethylazanium]
time L-Erg blood and plasma concentrations remain significatively higher after the administration end [1]: 6 weeks | stone growth (rate) in the L-Erg treated group ([2]; 16 mg/kg·day, 6 months, vs untreated): almost statistically significant reduction | effect on urine redox potential [2, 7]: statistically significant more reduced urine | side effects in cystinuric mice ([2]; mouse, in vivo): does not generate any side effect | formation of L-Erg-Cys and L-Erg-L-Erg dimers [3]: Neither L-Erg-Cys, nor L-Erg-L-Erg dimers were detected | Cys intracellular concentration in kidney, increase [5]: 1.6 × | Cys/CssC ratio in kidney, increase [5]: 6.1 times | GSH intracellular concentration in kidney, increase [5]: 1.4 × | GSH/GSSG ratio in kidney, increase [5]: 2.1 times | Met intracellular concentration in kidney, increase [5]: 1.7 × | S-adenosylhomocysteine (SAH) intracellular concentration in kidney, decrease [5]: 1.2 × | SAM/SAH ratio in kidney, increase [5]: 1.8 times | cystine intracellular concentration in kidney, decrease [5]: 11.1 × | gamma-Glutamylcysteine intracellular concentration in kidney, increase [5]: 1.7 ×

area under the ROC curve, urine concentration as lithiasic biomarker [6]: over 0.65
Compound: CSc1ncc(C[C@@H](C(=O)[O-])[N+](C)(C)C)[nH]1 [S-Met-L-Erg, (2-{S})-3-(2-methylsulfanyl-1-{H}-imidazol-5-yl)-2-(trimethylazaniumyl)propanoate]
